Assay in all cases: single-channel electrophysiology, planar lipid bilayer, ion current blockage events
Common to all, as to format: binding

Experiment [1] concerns the target T1, OmpF (OmpF-WT) (Escherichia coli, UniProt P02931).
T1 construct: purified wild-type OmpF, mature porin, homotrimer, reconstituted in planar lipid bilayer; OMV form overexpressed in E. coli BL21(DE3)omp8
T1 sequence (P02931 23-362): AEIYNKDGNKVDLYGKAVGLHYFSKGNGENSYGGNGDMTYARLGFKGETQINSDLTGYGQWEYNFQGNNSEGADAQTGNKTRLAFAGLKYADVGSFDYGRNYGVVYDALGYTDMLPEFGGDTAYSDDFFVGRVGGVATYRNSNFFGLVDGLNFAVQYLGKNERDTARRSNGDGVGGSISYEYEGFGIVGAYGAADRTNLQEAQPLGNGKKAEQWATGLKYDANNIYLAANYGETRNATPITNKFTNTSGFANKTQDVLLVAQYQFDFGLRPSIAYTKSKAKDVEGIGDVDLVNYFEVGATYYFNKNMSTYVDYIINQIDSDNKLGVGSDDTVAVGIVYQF
The following applies: purified OmpF without LPS; 250 uM compound; 200 mM KCl, 20 mM MES, pH 6.0; negative voltage (-50 mV stated for the OMV values). From the text: single-channel electrophysiology, planar lipid bilayer, ion current blockage events on OmpF (OmpF-WT) | Higher event rates are found using purified OmpF.

For experiment [2], the target named is T1, OmpF (OmpF-WT). The note with it: purified OmpF without LPS; 250 uM compound; 200 mM KCl, 20 mM MES, pH 6.0; negative voltage (-50 mV stated for the OMV values). The source holds these as a separate data set.
Experiment [3] has as its target T1, OmpF (OmpF-WT). The note with it: purified OmpF; 10 uM compound; 1 M KCl, 20 mM MES, pH 6.

The structures appear in SMILES notation. Structures can show the parent of a compound that is named as a salt.

Consider `CCN1CCN(c2cc3c(cc2F)c(=O)c(C(=O)O)cn3C2CC2)CC1` [Enrofloxacin], for which, at OmpF (OmpF-WT) [1], the k on was 72,000 s^-1 M^-1. This compound also showed a k off on OmpF (OmpF-WT) [2] of 500 s⁻¹. With `NC[C@H]1O[C@H](O[C@H]2[C@H](O)[C@@H](O[C@H]3O[C@H](CO)[C@@H](O)[C@H](N)[C@H]3O)[C@H](N)C[C@@H]2N)[C@H](O)[C@@H](O)[C@@H]1O` [Kanamycin sulfate], the event rate entry at OmpF (OmpF-WT) [3] is given as “Kanamycin sulfate permeation for both batches of preparation”.
